Experimental data as given in BindingDB's records for patent US20240425499 (Halia Therapeutics, 2024).

target: T1, Tyrosine-protein kinase receptor TYRO3 (Homo sapiens, UniProt Q06418); assay: TYRO3 Enzymatic Assay
T1 sequence (Q06418 whole entry): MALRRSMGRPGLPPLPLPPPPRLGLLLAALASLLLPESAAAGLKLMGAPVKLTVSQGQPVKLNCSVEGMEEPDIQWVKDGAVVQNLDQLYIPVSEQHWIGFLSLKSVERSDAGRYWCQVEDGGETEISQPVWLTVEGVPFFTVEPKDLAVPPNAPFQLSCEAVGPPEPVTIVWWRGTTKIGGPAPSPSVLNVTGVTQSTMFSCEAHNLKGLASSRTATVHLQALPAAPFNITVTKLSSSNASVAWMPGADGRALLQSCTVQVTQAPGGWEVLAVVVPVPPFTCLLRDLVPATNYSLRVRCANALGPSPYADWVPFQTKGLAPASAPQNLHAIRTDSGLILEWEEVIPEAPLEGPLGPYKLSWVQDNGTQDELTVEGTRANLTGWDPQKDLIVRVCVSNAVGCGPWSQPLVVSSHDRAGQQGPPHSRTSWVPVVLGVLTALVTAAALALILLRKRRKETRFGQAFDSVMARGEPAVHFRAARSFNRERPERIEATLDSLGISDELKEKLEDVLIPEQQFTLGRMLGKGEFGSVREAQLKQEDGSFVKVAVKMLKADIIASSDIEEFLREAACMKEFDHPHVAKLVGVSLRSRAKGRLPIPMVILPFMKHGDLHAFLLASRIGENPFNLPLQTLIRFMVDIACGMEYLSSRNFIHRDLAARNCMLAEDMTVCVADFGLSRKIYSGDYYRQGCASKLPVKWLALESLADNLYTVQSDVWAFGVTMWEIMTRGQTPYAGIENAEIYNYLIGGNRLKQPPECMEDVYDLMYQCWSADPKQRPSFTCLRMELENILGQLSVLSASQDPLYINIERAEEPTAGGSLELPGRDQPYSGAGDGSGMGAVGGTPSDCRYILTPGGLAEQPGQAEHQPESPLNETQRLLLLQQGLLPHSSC
Description: Poly(Glu, Tyr) sodium salt (Glu:Tyr (4:1), quality level 200, molecular weight 5,000-20,000, obtained from Sigma Aldrich, catalogue #P7244, assay concentration 0.20 mg/mL) and recombinant human TYRO3 (obtained from ThermoFisher Scientific, catalogue #PV3828, assay concentration 2 nM) were mixed in assay buffer (20 mM Hepes pH 7.5, 10 mM MgCl2, 1 mM EGTA, 0.02% Brij35, 0.02 mg/ml BSA, 0.1 mM Na3VO4, 2 mM DTT, 1% DMSO, with added MnCl2 at a final concentration of 2 mM). Compounds of interest (in DMSO, serial 3-fold dilution from 10 μM to 0.5 nM) or control (1% DMSO) were dispensed into the kinase reaction mixture by Acoustic technology (Echo550; nanoliter range). After incubation at room temperature for 20 minutes, the kinase reaction was initiated by addition of [32P]-ATP (Specific activity 10 μCi/μl) and the mixture was incubated at room temperature for 2 hours. The reaction was then stopped by spotting the reaction mixture on strips of phosphocellulose P81 paper. Following washing, the radioactivity of the P81 paper was measured and kinase activity data were expressed as the percent remaining kinase activity in test samples compared to vehicle (dimethyl sulfoxide) reactions.

| Structure (SMILES) | IC50 |
| --- | --- |
| N#Cc1ccc(-c2c[nH]c3ncc(-c4ccc(CN5CCCC(O)C5)cc4)cc23)cc1 (stereo unspecified) [US20240425499, Compound 14] | < 0.051 µM |
| COc1ccc(-c2c[nH]c3ncc(-c4ccc(CN5CCCC(O)C5)cc4)cc23)cc1C#N (stereo unspecified) [US20240425499, Compound 18] | < 0.051 µM |
| CC(C)(O)c1ccc(-c2c[nH]c3ncc(-c4ccc(CN5CCCC(O)C5)cc4)cc23)cc1 (stereo unspecified) [US20240425499, Compound 85] | < 0.051 µM |
| COCc1[nH]c2ncc(-c3ccc(CN4CCCC(O)C4)cc3)cc2c1-c1cccc(F)c1 (stereo unspecified) [US20240425499, Compound 63] | < 0.051 µM |
| CCOCc1[nH]c2ncc(-c3ccc(CN4CCCC(O)C4)cc3)cc2c1-c1cccc(F)c1 (stereo unspecified) [US20240425499, Compound 67] | < 0.051 µM |
| OC1CCCN(Cc2ccc(-c3cnc4[nH]cc(-c5ccc6c(c5)CCNC6)c4c3)cc2)C1 (stereo unspecified) [US20240425499, Compound 80] | < 0.051 µM |
| OC1CCCN(Cc2ccc(-c3cnc4[nH]cc(-c5cccc(F)c5)c4c3)cc2)C1 (stereo unspecified) [US20240425499, Compound 4] | < 0.051 µM |
| CCc1[nH]c2ncc(-c3ccc(CN4CCCC(O)C4)cc3)cc2c1-c1cccc(F)c1 (stereo unspecified) [US20240425499, Compound 57] | < 0.051 µM |
| OC1CCCN(Cc2ccc(-c3cnc4[nH]cc(-c5ccc6ocnc6c5)c4c3)cc2)C1 (stereo unspecified) [US20240425499, Compound 50] | < 0.051 µM |
| Oc1ccc(-c2c[nH]c3ncc(-c4ccc(CN5CCCC(O)C5)cc4)cc23)cc1 (stereo unspecified) [US20240425499, Compound 16] | < 0.051 µM |
| COC1CCN(Cc2ccc(-c3cnc4[nH]cc(-c5ccc6[nH]ccc6c5)c4c3)cc2)CC1 [US20240425499, Compound 45] | < 0.051 µM |
| CCc1[nH]c2ncc(-c3ccc(CN4CCCC(O)C4)cc3)cc2c1-c1ccnc(C(F)F)c1 (stereo unspecified) [US20240425499, Compound 61] | < 0.051 µM |
| CC1(O)CCN(Cc2ccc(-c3cnc4[nH]cc(-c5ccc6[nH]ccc6c5)c4c3)cc2)CC1 [US20240425499, Compound 76] | < 0.051 µM |
| OC1CCCN(Cc2ccc(-c3cnc4[nH]cc(-c5cnc6[nH]ccc6c5)c4c3)cc2)C1 (stereo unspecified) [US20240425499, Compound 47] | < 0.051 µM |
| OC1CCCN(Cc2ccc(-c3cnc4[nH]cc(-c5cc(F)cc(C(F)(F)F)c5)c4c3)cc2)C1 (stereo unspecified) [US20240425499, Compound 13] | > 0.501 µM |
| OC1CCCN(Cc2ccc(-c3cnc4[nH]cc(-c5cc(F)c6ocnc6c5)c4c3)cc2)C1 (stereo unspecified) [US20240425499, Compound 52] | < 0.051 µM |
| CN(C)Cc1[nH]c2ncc(-c3ccc(CN4CCCC(O)C4)cc3)cc2c1-c1cccc(F)c1 (stereo unspecified) [US20240425499, Compound 87] | > 0.501 µM |
| OC1CCCN(Cc2ccc(-c3cnc4[nH]cc(-c5ccc(C(F)F)nc5)c4c3)cc2)C1 (stereo unspecified) [US20240425499, Compound 23] | < 0.051 µM |
| OC1CCCN(Cc2ccc(-c3cnc4[nH]c(-c5ccoc5)c(-c5ccnc(F)c5)c4c3)cc2)C1 (stereo unspecified) [US20240425499, Compound 86] | < 0.051 µM |
| COCc1[nH]c2ncc(-c3ccc(CN4CCCC(O)C4)cc3)cc2c1-c1ccnc(F)c1 (stereo unspecified) [US20240425499, Compound 65] | < 0.051 µM |
| OC1CCCN(Cc2ccc(-c3cnc4[nH]cc(-c5cc(F)cc(F)c5)c4c3)cc2)C1 (stereo unspecified) [US20240425499, Compound 12] | < 0.051 µM |
| COc1ccc(-c2c[nH]c3ncc(-c4ccc(N5CCC(C)(O)CC5)cc4)cc23)cn1 [US20240425499, Compound 72] | > 0.501 µM |
| COc1ccc(-c2c(Cl)[nH]c3ncc(-c4ccc(CN5CCCC(O)C5)cc4)cc23)cn1 (stereo unspecified) [US20240425499, Compound 56] | < 0.051 µM |

| Structure (SMILES) | IC50 |
| --- | --- |
| Cc1cccc(-c2c[nH]c3ncc(-c4ccc(CN5CCCC(O)C5)cc4)cc23)c1 (stereo unspecified) [US20240425499, Compound 2] | < 0.051 µM |
| OC1CCCN(Cc2ccc(-c3cnc4[nH]cc(-c5cccc6[nH]ncc56)c4c3)cc2)C1 (stereo unspecified) [US20240425499, Compound 49] | < 0.051 µM |
| COC1CN(Cc2ccc(-c3cnc4[nH]cc(-c5ccc6[nH]ccc6c5)c4c3)cc2)C1 [US20240425499, Compound 46] | < 0.051 µM |
| CCc1[nH]c2ncc(-c3ccc(CN4CCCC(O)C4)cc3)cc2c1-c1ccc(OC)nc1 (stereo unspecified) [US20240425499, Compound 59] | < 0.051 µM |
| Cc1nc2cc(-c3c[nH]c4ncc(-c5ccc(CN6CCCC(O)C6)cc5)cc34)ccc2o1 (stereo unspecified) [US20240425499, Compound 51] | < 0.051 µM |
| N#Cc1cccc(-c2c[nH]c3ncc(-c4ccc(CN5CCCC(O)C5)cc4)cc23)c1 (stereo unspecified) [US20240425499, Compound 15] | < 0.051 µM |
| OC1CCCN(Cc2ccc(-c3cnc4[nH]cc(-c5ccc6cn[nH]c6c5)c4c3)cc2)C1 (stereo unspecified) [US20240425499, Compound 48] | < 0.051 µM |
| COCc1[nH]c2ncc(-c3ccc(CN4CCCC(O)C4)cc3)cc2c1-c1ccnc(C(F)F)c1 (stereo unspecified) [US20240425499, Compound 66] | < 0.051 µM |
| COc1ccc(-c2c[nH]c3ncc(-c4ccc(C(C)N5CCCC(O)C5)cc4)cc23)cn1 (stereo unspecified) [US20240425499, Compound 75] | < 0.051 µM |
| OC1CCCN(Cc2ccc(-c3cnc4[nH]c(CC5CC5)c(-c5cccc(F)c5)c4c3)cc2)C1 (stereo unspecified) [US20240425499, Compound 90] | < 0.051 µM |
| CCc1[nH]c2ncc(-c3ccc(CN4CCCC(O)C4)cc3)cc2c1-c1ccnc(F)c1 (stereo unspecified) [US20240425499, Compound 60] | < 0.051 µM |
| c1cc2cc(-c3c[nH]c4ncc(-c5ccc(CN6CCCCC6)cc5)cc34)ccc2[nH]1 [US20240425499, Compound 79] | < 0.051 µM |
| COc1ccc(-c2c[nH]c3ncc(-c4ccc(CN5CCCC(F)(F)C5)cc4)cc23)cn1 [US20240425499, Compound 41] | > 0.501 µM |
| COc1ccc(-c2c[nH]c3ncc(-c4ccc(CN5CC(CO)CC(F)(F)C5)cc4)cc23)cn1 (stereo unspecified) [US20240425499, Compound 33] | > 0.501 µM |
| OC1CN(Cc2ccc(-c3cnc4[nH]cc(-c5ccc6[nH]ccc6c5)c4c3)cc2)C1 [US20240425499, Compound 44] | < 0.051 µM |
| Cc1nc2cc(-c3c[nH]c4ncc(-c5ccc(CN6CCCC(O)C6)cc5)cc34)cnc2o1 (stereo unspecified) [US20240425499, Compound 84] | < 0.051 µM |
| OCc1ccc(-c2c[nH]c3ncc(-c4ccc(CN5CCCC(O)C5)cc4)cc23)cc1 (stereo unspecified) [US20240425499, Compound 83] | < 0.051 µM |
| COc1ccc(-c2c[nH]c3ncc(-c4ccc(CN5CC(O)CC(F)(F)C5)cc4)cc23)cn1 (stereo unspecified) [US20240425499, Compound 31] | > 0.501 µM |
| CCc1[nH]c2ncc(-c3ccc(CN4CCCC(O)C4)cc3)cc2c1-c1ccc(C(F)F)nc1 (stereo unspecified) [US20240425499, Compound 58] | < 0.051 µM |
| CN(C)Cc1ccc(-c2c[nH]c3ncc(-c4ccc(CN5CCCC(O)C5)cc4)cc23)cc1 (stereo unspecified) [US20240425499, Compound 17] | < 0.051 µM |
| OC1CCCN(Cc2ccc(-c3cnc4[nH]cc(-c5cccc(C(F)F)c5)c4c3)cc2)C1 (stereo unspecified) [US20240425499, Compound 9] | < 0.051 µM |
| N#Cc1cc(-c2c[nH]c3ncc(-c4ccc(CN5CCCC(O)C5)cc4)cc23)ccc1O (stereo unspecified) [US20240425499, Compound 53] | < 0.051 µM |
| OC1CCN(Cc2ccc(-c3cnc4[nH]cc(-c5ccc6[nH]ccc6c5)c4c3)cc2)CC1 [US20240425499, Compound 78] | < 0.051 µM |
